Test results: patent publication US9018208B2, “Heterocycles as potassium channel modulators” (Icagen Inc., priority 2007, dated 2015)

tested on: SH-SY5Y M-currents (KCNQ2, KCNQ3 and KCNQ5); assay: SH-SY5Y native cell line FLIPR assay (voltage-sensitive dye DiBAC); assay type: cell-based, mouse neuroblastoma, rat glioma hybrid cell line; settings: FLIPR assay, SH-SY5Y native cell line; Table 2; read-out: SH-SY5Y EC50
Method in brief: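 Response is peak DiBAC fluorescence change, normalised to the maximum from a positive control agent, sampled every 30 s over 25 min. Before compound addition, SH-SY5Y cells differentiated with PGE1 plus isomethylbutylxanthine were dye-loaded for 1 h in EBSS with […] DiBAC.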

`O=C(Cc1ccc(F)cc1)Nc1nc2ccc(F)cn2c1-c1cccc(Cl)c1` [Compound 148, N-(3-(3-chlorophenyl)-6-fluoroimidazo[1,2-a]pyridin-2-yl)-2-(4-fluorophenyl)acetamide] and `O=C(Cc1ccc(F)cc1)Nc1nc2ccc(F)cn2c1-c1cccc(C(F)(F)F)c1` [Compound 164, N-(6-fluoro-3-(3-(trifluoromethyl)phenyl)imidazo[1,2-a]pyridin-2-yl)-2-(4-fluorophenyl)acetamide] cannot be ordered by EC50: under 500 nM for the first, under 500 nM for the second.

`CC(C)(C)CC(=O)Nc1nc2ccc(F)cn2c1-c1cccc(Cl)c1` [Compound 149, N-(3-(3-chlorophenyl)-6-fluoroimidazo[1,2-a]pyridin-2-yl)-3,3-dimethylbutanamide] and `CC(C)(C)CC(=O)Nc1nc2ccc(F)cn2c1-c1ccc(Cl)cc1` [Compound 150, N-(3-(4-chlorophenyl)-6-fluoroimidazo[1,2-a]pyridin-2-yl)-3,3-dimethylbutanamide] cannot be ordered by EC50: under 500 nM for the first, under 500 nM for the second.

`C#CCCCC(=O)Nc1nc2ccc(F)cn2c1-c1ccc(F)cc1` [Compound 151, N-(6-fluoro-3-(4-fluorophenyl)imidazo[1,2-a]pyridin-2-yl)hex-5-ynamide] and `CC(C)C(C)C(=O)Nc1nc2ccc(F)cn2c1-c1ccc(F)cc1` (stereo not shown) [Compound 162, N-(6-fluoro-3(4-fluorophenyl)imidazo[1,2-a]pyridin-2-yl)-2,3-dimethylbutanamide] fall in the same range of EC50: 500 to 3000 nM for the first, 500 to 3000 nM for the second.

First: CC(C)(C)CC(=O)Nc1nc2ccc(Br)cn2c1-c1ccc(F)cc1 [Compound 152, N-(6-bromo-3-(4-fluorophenyl)imidazo[1,2-a]pyridin-2-yl)-3,3-dimethyl butanamide]
Second: CC(C)(C)CC(=O)Nc1nc2ccc(C#N)cn2c1-c1ccc(F)cc1 [Compound 159, N-(6-cyano-3-(4-fluorophenyl)imidazo[1,2-a]pyridin-2-yl)-3,3-dimethylbutanamide]
The EC50 of the first is lower: under 500 nM for the first, 500 to 3000 nM for the second. The first is the more potent here.

First: O=C(Cc1ccc(F)cc1)Nc1nc2ccc(F)cn2c1-c1ccc(OC(F)(F)F)cc1 [Compound 154, N-(6-fluoro-3-(4-(trifluoromethoxy)phenyl)imidazo[1,2-a]pyridin-2-yl)-2-(4-fluorophenyl)acetamide]
Second: N#Cc1ccc2nc(NC(=O)Cc3ccccc3)c(-c3ccc(F)cc3)n2c1 [Compound 160, N-(6-cyano-3-(4-fluorophenyl)imidazo[1,2-a]pyridin-2-yl)-2-phenylacetamide]
The EC50 of the first is lower: under 500 nM for the first, 500 to 3000 nM for the second.

First: O=C(Cc1ccccc1)Nc1nc2ccc(F)cn2c1-c1cccc(Cl)c1 [Compound 155, N-(3-(3-chlorophenyl)-6-fluoroimidazo[1,2-a]pyridin-2-yl)-2-phenylacetamide]
Second: O=C(Nc1nc2ccc(F)cn2c1-c1ccc(C(F)(F)F)cc1)OCc1ccccc1 [Compound 161, benzyl 6-fluoro-3-(4-(trifluoromethyl)phenyl)imidazo[1,2-a]pyridin-2-ylcarbamate]
The EC50 of the first is lower: under 500 nM for the first, 3000 to 10000 nM for the second.

`O=C(CC1CCCC1)Nc1nc2ccc(F)cn2c1-c1ccc(C(F)(F)F)cc1` [Compound 156, 2-cyclopentyl-N-(6-fluoro-3-(4-(trifluoromethyl)phenyl)imidazo[1,2-a]pyridin-2-yl)acetamide] and `O=C(CC1CCCCC1)Nc1nc2ccc(F)cn2c1-c1ccc(C(F)(F)F)cc1` [Compound 157, 2-cyclohexyl-N-(6-fluoro-3-(4-(trifluoromethyl)phenyl)imidazo[1,2-a]pyridin-2-yl)acetamide] cannot be ordered by EC50: under 500 nM for the first, under 500 nM for the second.

First: CC(C)(C)CC(=O)Nc1nc2ccc(F)cn2c1-c1ccccc1Cl [Compound 158, N-(3-(2-chlorophenyl)-6-fluoroimidazo[1,2-a]pyridin-2-yl)-3,3-dimethylbutanamide]
Second: CC(C)(C)CC(=O)Nc1nc2ccc(F)cn2c1-c1cccc(C(F)(F)F)c1 [Compound 163, N-(6-fluoro-3-(3-(trifluoromethyl)phenyl)imidazo[1,2-a]pyridin-2-yl)-3,3-dimethylbutanamide]
The EC50 of the first is higher: 500 to 3000 nM for the first, under 500 nM for the second. The second is the more potent here.
